# Experimental data reported in patent US20190100549A1, “FLAVONOIDE-TYPE COMPOUNDS BEARING AN O-RHAMNOSYL RESIDUE” (Universitaet Hamburg, priority 2016, published 2019).
# Values joined by “and” are separate entries in the source; they are usually repeats but may differ in a detail not shown here. Equal entries are not always repeated. Where two headings read alike, the source gives them in different places.
# Columns and labels:
# [1] = Water solubility of naringenin-5-rhamnoside (0.2 μm filtered solutions, HPLC); format: physicochemical; settings: read-out: maximum water solubility
# Experimental: FIG. 1: Determination of solubility of naringenin-5-O-α-L-rhamnoside (NR1) in water. Defined concentrations of NR1 were 0.22 μm-filtered before injection to HPLC. Soluble concentrations were calculated from peak areas by determined regression curves.
# FIG. 1 illustrates the amounts of Naringenin-5-rhamnoside recaptured from a RP18 HPLC-column after loading of a 0.2 μm filtered solution containing defined amounts up to 25 mM of the same. Amounts were calculated from a regression curve.
# [2] = tested on: normal human epidermal keratinocytes (NHEK); test: Cytotoxicity on NHEK monolayer cultures (MTT reduction assay and morphological observation); format: cell-based; settings: for Viability (%): single values, listed as Nar-5-Rha
# Experimental: To determine the cytotoxicity of flavonoid-5-O-α-L-rhamnosides tests were performed versus their aglycon derivatives in cell monolayer cultures. For this purpose concentrations ranging from 1 μM to 250 μM were chosen. The viability of normal human epidermal keratinocytes (NHEK) was twice evaluated by a MTT reduction assay and morphological observation with a microscope. NHEK were grown at 37° C. and 5% CO2 aeration in Keratinocyte-SFM medium supplemented with epidermal growth factor (EGF) at 0.25 ng/mL, pituitary extract (PE) at 25 μg/mL and gentamycin (25 μg/mL) for 24 h and were used at the 3rd passage. For cytotoxicity testing, pre-incubated NHEK were given fresh culture medium containing a specific concentration of test compound and incubated for 24 h. After a medium change at same test concentration cells were incubated a further 24 h until viability was determined. Test results are given in Table B2 and illustrated in FIG. 10.
# PGE2 = PGE2 release in stimulated NHEK (ELISA); format: cell-based, human; settings: Homo sapiens, NHEK, PMA 1 μg/ml; for inhibition at 1 µM: 10^−6 M
# Experimental: (§1) NHEK were pre-incubated for 24 h with the test compounds. The medium was replaced with the NHEK culture medium containing the inflammatory inducers (PMA or Poly I:C) and incubated for another 24 hours. Positive and negative controls ran in parallel. At the endpoint the culture supernatants were quantified of secreted IL-8, PGE2 and TNF-α by means of ELISA.
# IL-8 = IL-8 release in stimulated NHEK (ELISA); format: cell-based, human; settings: Homo sapiens, NHEK
# Experimental: as §1
# TNF-α = TNF-α release in stimulated NHEK (ELISA); format: cell-based, human; settings: Homo sapiens, NHEK, poly(I:C), read-out: TNFα Inhibition %
# Experimental: as §1
# [3] = tested on: lipid peroxides (C11-fluor) in NHEK cells; test: Protection against UV-induced lipid peroxide in NHEK (C11-fluor probe, flow cytometry); format: cell-based, human
# Experimental: Pre-incubated NHEK were incubated with the test compound for 24 h. Then the specific fluorescence probe for the measurement of hydrogen peroxide (DHR) or lipid peroxides (C11-fluor) was added and incubated for 45 min. Irradiation occurred with in H2O2 determination UVB at 180 mJ/cm^2 (+UVA at 2839 mJ/cm^2) or UVB at 240 mJ/cm^2 (+UVA at 3538 mJ/cm^2) in lipid peroxide, respectively, using a SOL500 Sun Simulator lamp. After irradiation the cells were post-incubated for 30 min before flow-cytometry analysis.
# VEGF = VEGF release in NHDF (ELISA); format: cell-based, human; settings: 1 μg/ml, 72 hours
# Experimental: (§2) Tests were performed with normal human dermal fibroblast cultures at the 8th passage. Cells were grown in DMEM supplemented with glutamine at 2 mM, penicillin at 50 U/mL and streptomycin (50 μg/mL) and 10% of fetal calf serum (FCS) at 37° C. in a 5% CO2 atmosphere.
# (§3) Fibroblasts were cultured for 24 hours before the cells were incubated with the test compounds for further 72 hours. After the incubation the culture supernatants were collected in order to measure the released quantities of procollagen I, VEGF, and fibronectin by means of ELISA. Reference test compounds were vitamin C (procollagen I), PMA (VEGF), and TGF-β (fibronectin).
# procollagen I = test: Procollagen I synthesis in NHDF (ELISA); format: cell-based, human; settings: 20 μg/ml, 72 hours
# Experimental: as §2, §3
# fibronectin = test: Fibronectin synthesis in NHDF (ELISA); format: cell-based, human; settings: 10 ng/ml, 72 hours
# Experimental: as §2, §3
# [4] = 50 μM, 240 mJ/cm^2 UVB (3538 mJ/cm^2 UVA)
# [5] = 50 μM, 240 mJ/cm^2 UVB (3538 mJ/cm^2 UVA), single values
molecule,measurement,setting,value
"C[C@@H]1O[C@@H](Oc2cc(O)cc3c2C(=O)CC(c2ccc(O)cc2)O3)[C@H](O)[C@H](O)[C@H]1O (mixture of isomers) [NR1, Naringenin-5-O-α-L-rhamnoside]",solubility,[1]; equivalent of 10 mmol/L,~4200 µg/mL
same,solubility,[1],~10 mM
same,Viability (%) Mean,[2]; 1 μM,101%
same,Viability (%),[2]; 1 μM,91% and 111%
same,Viability (%) Mean,[2]; 2.5 μM,93%
same,Viability (%),[2]; 2.5 μM,92% and 93%
same,Viability (%) Mean,[2]; 5 μM,86%
same,Viability (%),[2]; 5 μM,85% and 88%
same,Viability (%) Mean,[2]; 10 μM,97%
same,Viability (%),[2]; 10 μM,94% and 100%
same,Viability (%) Mean,[2]; 25 μM,95%
same,Viability (%),[2]; 25 μM,92% and 98%
same,Viability (%) Mean,[2]; 50 μM,84%
same,Viability (%),[2]; 50 μM,78% and 91%
same,Viability (%) Mean,[2]; 100 μM,86%
same,Viability (%),[2]; 100 μM,82% and 90%
same,Viability (%) Mean,[2]; 250 μM,83%
same,Viability (%),[2]; 250 μM,79% and 87%
same,inhibition at 100 µM,PGE2; 100 μM,21%
same,inhibition at 100 µM,IL-8; PMA,12%
same,inhibition at 100 µM,IL-8; poly(I:C),14%
same,inhibition at 100 µM,TNF-α,8%
same,anti-oxidative function on lipid peroxides (in words),[3],anti-oxidative function
Cc1cc(C(C)(C)C)c(O)c(C(C)(C)C)c1 [BHT],C11-fluor(AU) Mean (1/GMFI),[3]; [4],3.3E−04 AU
same,lipid peroxide % Irradiated control,[3]; [4],72%
same,lipid peroxide Protection %,[3]; [4],37%
same,C11-fluor(AU) 1/GMFI,[3]; [5],3.2E−04 AU and 3.3E−04 AU and 3.5E−04 AU
same,C11-fluor(AU) GMFI,[3]; [5],3139 AU and 3047 AU and 2877 AU
"C[C@@H]1C[C@H]2[C@@H]3CCC4=CC(=O)C=C[C@]4(C)[C@@]3(F)[C@@H](O)C[C@]2(C)[C@@]1(O)C(=O)CO [Dexamethasone, reference compound]",inhibition at 1 µM,PGE2,9%
"COc1ccc2c(c1)c(CC(=O)O)c(C)n2C(=O)c1ccc(Cl)cc1 [Indomethacin, reference compound]",inhibition at 1 µM,PGE2,106%
"CCCCCCCCCCCCCC(=O)O[C@@H]1[C@@H](C)[C@@]2(O)[C@@H](C=C(CO)C[C@]3(O)C(=O)C(C)=C[C@@H]23)[C@@H]2C(C)(C)[C@]12OC(C)=O [PMA, reference compound]",Mean VEGF,VEGF,148 pg/mL
same,VEGF % Control,VEGF,205%
same,VEGF % Stimulation,VEGF,105%
same,VEGF,VEGF; single values,150 pg/mL and 143 pg/mL
O=C1O[C@H]([C@@H](O)CO)C(O)=C1O [Vitamin C],Procollagen I % Control,procollagen I,316%
same,Procollagen I % Stimulation,procollagen I,216%
same,Procollagen I Mean,procollagen I,5272 ng/mL
same,Procollagen I,procollagen I; single values,4739 ng/mL and 5854 ng/mL and 5225 ng/mL
TGF-β,Fibronectin % Control,fibronectin,181%
same,Fibronectin % Stimulation,fibronectin,81%
same,Fibronectin,fibronectin; single values,10870 ng/mL and 11178 ng/mL and 11128 ng/mL
